The text below walks through data of ChEMBL document CHEMBL1201862, “PubChem BioAssay data set” (2004).

SMILES strings stand for the structures.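 Compound exposure: 48 hours, 5 concentrations, 96-well plates. GI50: concentration for 50% inhibition of growth.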 Calls of active or inactive are those of the source. Cut-off read from the data, not from the text of the source: active = GI50 up to about 1.1 µM and inactive = higher.

Test systems include A549; BT-549; HT-29; IGROV-1; M14; NCI-H460; NCI-H522; NCI/ADR-RES; OVCAR-4; RXF 393; SF-268; SK-MEL-28; SK-MEL-5; SK-OV-3; SNB-19; T47D; TK-10; UACC-62; UO-31; HOP-92.
Common to all, as to test: inhibition of tumour cell growth, NCI panel, 48 h

Turning to `CCC(=O)N1C(=O)C(CC)(CC)C(=O)N1C(=O)CC`, the GI50 in the experiment on A549, in the experiment on BT-549, in the experiment with HT-29, with IGROV-1, with M14 and in the experiment with NCI-H460 was > 100 µM (inactive) each time. In addition, the GI50 in the experiment with NCI-H522, in the experiment with NCI/ADR-RES, in the experiment on OVCAR-4, in the experiment on RXF 393, in the experiment with SF-268 and in the experiment with SK-MEL-28 was > 100 µM (inactive) each time. Besides, the GI50 in the experiment with SK-MEL-5, in the experiment with SK-OV-3, with SNB-19, with T47D, in the experiment with TK-10 and with UACC-62 was > 100 µM (inactive) in each case. In addition, the GI50 in the experiment on UO-31 is > 100 µM (inactive).

Consider `N#C/C(=C1\N=C(c2ccccc2O)Oc2ccccc21)c1ccc([N+](=O)[O-])cc1`, for which the GI50 in the experiment on A549 is > 100 µM (inactive); in the experiment on BT-549 it was > 100 µM (inactive); with HOP-92, > 100 µM (inactive); in the experiment with HT-29, > 100 µM (inactive); in the experiment with IGROV-1 it was 88.9 µM (inactive); with M14 it was > 100 µM (inactive). For the same molecule, the GI50 with NCI-H460 is > 100 µM (inactive); in the experiment on NCI/ADR-RES, > 100 µM (inactive); with OVCAR-4, 41.9 µM (inactive); with RXF 393 it was > 100 µM (inactive); in the experiment with SF-268, > 100 µM (inactive); in the experiment with SK-MEL-28, > 100 µM (inactive). The GI50 in the experiment on SK-MEL-5, with SK-OV-3, in the experiment on SNB-19, in the experiment with T47D, with TK-10 and in the experiment on UACC-62 was > 100 µM (inactive) throughout. For the same molecule, the GI50 in the experiment on UO-31 was > 100 µM (inactive).

On to `COCCn1cnc2c(Cl)nc(Nc3ccccc3)nc21`, for which the GI50 with A549 is 48.8 µM (inactive); in the experiment with BT-549, 27.4 µM (inactive); in the experiment with HT-29, 64 µM (inactive); in the experiment on IGROV-1, 21.2 µM (inactive); with M14, 26.3 µM (inactive); in the experiment with NCI-H460, 82.4 µM (inactive). Also, the GI50 in the experiment on NCI/ADR-RES is 39.2 µM (inactive); with OVCAR-4 it was 22 µM (inactive); in the experiment with RXF 393, 20.9 µM (inactive); with SF-268 it was 39.4 µM (inactive); in the experiment with SK-MEL-28, 36 µM (inactive); with SK-MEL-5 it was 38.7 µM (inactive). Further, the GI50 in the experiment on SK-OV-3 is 37.2 µM (inactive); in the experiment on SNB-19, 90.4 µM (inactive); in the experiment on T47D, 29.8 µM (inactive); in the experiment with TK-10, > 100 µM (inactive); in the experiment with UACC-62, 25.6 µM (inactive).

In the case of `O=c1c(S(=O)(=O)Oc2ccccc2)coc2cc(F)ccc12`, the GI50 in the experiment with A549 was > 100 µM (inactive); in the experiment with BT-549, 37.2 µM (inactive); in the experiment with HT-29, > 100 µM (inactive); in the experiment with IGROV-1 it was > 100 µM (inactive); with M14, > 100 µM (inactive); in the experiment with NCI-H460, > 100 µM (inactive). Also, the GI50 in the experiment on NCI-H522 is > 100 µM (inactive); with NCI/ADR-RES it was 32.4 µM (inactive); in the experiment on OVCAR-4, > 100 µM (inactive); with RXF 393, 36.1 µM (inactive); in the experiment with SF-268, > 100 µM (inactive); in the experiment with SK-MEL-28 it was > 100 µM (inactive). Besides, the GI50 was > 100 µM (inactive) with SK-MEL-5; > 100 µM (inactive) in the experiment with SK-OV-3; > 100 µM (inactive) in the experiment on SNB-19; 55 µM (inactive) in the experiment with T47D; > 100 µM (inactive) in the experiment with TK-10; 60 µM (inactive) in the experiment with UACC-62. In addition, the GI50 in the experiment on UO-31 was 46.8 µM (inactive).

Turning to `CCCCSC1=N/C(=C\c2ccco2)C(Cl)=N1`, the GI50 in the experiment with A549, in the experiment on BT-549, with HT-29, with IGROV-1, with M14 and in the experiment with NCI-H460 was > 100 µM (inactive) throughout. The GI50 in the experiment on NCI-H522, in the experiment with NCI/ADR-RES, in the experiment with OVCAR-4, with RXF 393, in the experiment with SF-268 and with SK-MEL-28 was > 100 µM (inactive) throughout. In addition, the GI50 in the experiment with SK-MEL-5, with SK-OV-3, with SNB-19, in the experiment on T47D, in the experiment on TK-10 and with UACC-62 was > 100 µM (inactive) each time. Moreover, the GI50 with UO-31 was > 100 µM (inactive).

With `COc1ccc2c(c1)/C(=C\c1c(C)nc3sc(C)cn13)C(=O)N2`, the GI50 in the experiment with A549 was 1.36 µM (inactive); in the experiment on BT-549, 1.66 µM (inactive); in the experiment with HT-29, 0.363 µM (active); with IGROV-1, 0.755 µM (active); in the experiment on M14, 0.75 µM (active); in the experiment on NCI-H460, 0.205 µM (active). Besides, the GI50 in the experiment on NCI-H522 is 0.175 µM (active); in the experiment on NCI/ADR-RES, 1.36 µM (inactive); in the experiment with OVCAR-4, 12.7 µM (inactive); in the experiment with RXF 393, 1.64 µM (inactive); with SF-268, 2.35 µM (inactive); in the experiment on SK-MEL-28 it was 54.6 µM (inactive). Also, the GI50 is 0.206 µM (active) in the experiment with SK-MEL-5; 1.64 µM (inactive) with SK-OV-3; 3.33 µM (inactive) in the experiment on SNB-19; 9.89 µM (inactive) with T47D; 3.18 µM (inactive) with TK-10; 0.274 µM (active) with UACC-62. Besides, the GI50 in the experiment with UO-31 was 3.92 µM (inactive).

Take `NC(=O)c1cccc(OCC(O)CO)c1` (configuration not stated): the GI50 in the experiment on A549, in the experiment with BT-549, with HT-29, in the experiment with IGROV-1, in the experiment on M14 and in the experiment on NCI-H460 was > 100 µM (inactive) throughout. For the same molecule, the GI50 with NCI-H522, in the experiment with NCI/ADR-RES, in the experiment with OVCAR-4, with SF-268, in the experiment with SK-MEL-28 and with SK-MEL-5 was > 100 µM (inactive) in each case. For the same molecule, the GI50 in the experiment with SK-OV-3, in the experiment on SNB-19, in the experiment with T47D, in the experiment with TK-10, in the experiment on UACC-62 and in the experiment with UO-31 was > 100 µM (inactive) each time.

For the molecule `CCNCCNc1c2ccccc2nc2ccccc12`, the GI50 was 1.56 µM (inactive) in the experiment with A549; 2.84 µM (inactive) in the experiment on BT-549; 0.427 µM (active) with HT-29; 1.88 µM (inactive) in the experiment on IGROV-1; 1.39 µM (inactive) with M14; 0.453 µM (active) with NCI-H460. For the same molecule, the GI50 in the experiment on NCI-H522 is 1.04 µM (active); in the experiment on NCI/ADR-RES, 2.72 µM (inactive); in the experiment with OVCAR-4 it was 1.14 µM (inactive); with RXF 393 it was 1.23 µM (inactive); in the experiment on SF-268, 1.35 µM (inactive); in the experiment with SK-MEL-5, 1.66 µM (inactive). In addition, the GI50 with SK-OV-3 is 1.07 µM (active); in the experiment with SNB-19, 1.01 µM (active); in the experiment with T47D, 2.38 µM (inactive); in the experiment with TK-10, 2.91 µM (inactive); in the experiment with UACC-62 it was 1.49 µM (inactive); in the experiment on UO-31, 1.49 µM (inactive).

As for `COc1ccc2c(c1OC)C(=O)N/C2=C\c1c(CCN(C)C)cc2c(c1OC)OCO2`, the GI50 in the experiment with A549 was > 100 µM (inactive); in the experiment with BT-549, > 100 µM (inactive); in the experiment on HOP-92, > 100 µM (inactive); with HT-29 it was > 100 µM (inactive); with IGROV-1, 38.6 µM (inactive); with M14, > 100 µM (inactive). Moreover, the GI50 in the experiment on NCI-H460 is > 100 µM (inactive); in the experiment on NCI-H522, 37.6 µM (inactive); in the experiment on OVCAR-4 it was > 100 µM (inactive); in the experiment on RXF 393, 22.7 µM (inactive); in the experiment on SF-268 it was > 100 µM (inactive); with SK-MEL-28, > 100 µM (inactive). Besides, the GI50 is 42.4 µM (inactive) in the experiment on SK-MEL-5; > 100 µM (inactive) in the experiment on SK-OV-3; > 100 µM (inactive) with SNB-19; 27.9 µM (inactive) with T47D; > 100 µM (inactive) in the experiment on TK-10.

For `Cc1ccc(/N=N/c2c(C)c(C#N)c(=S)n(C3OC(CO)C(O)C(O)C3O)c2-c2ccccc2)cc1` (configuration not stated), the GI50 was 32 µM (inactive) in the experiment with A549; 19.6 µM (inactive) with BT-549; 27.7 µM (inactive) with HT-29; 31.3 µM (inactive) in the experiment on IGROV-1; 14.6 µM (inactive) with M14; 27.7 µM (inactive) in the experiment with NCI-H460. The GI50 in the experiment on NCI/ADR-RES was 29 µM (inactive); in the experiment with OVCAR-4, 29 µM (inactive); in the experiment with RXF 393, 17.8 µM (inactive); in the experiment with SF-268, 26.7 µM (inactive); in the experiment on SK-MEL-28, 16.5 µM (inactive); in the experiment on SK-MEL-5 it was 11.2 µM (inactive). Further, the GI50 is 34.1 µM (inactive) with SK-OV-3; 19.6 µM (inactive) in the experiment on SNB-19; 22.4 µM (inactive) in the experiment with T47D; 29.5 µM (inactive) in the experiment with TK-10; 14.5 µM (inactive) with UACC-62; 33.5 µM (inactive) in the experiment with UO-31.

Consider `COc1ccc(/C=N/Nc2nc(=S)[nH]c3[nH]ncc23)cc1`, for which the GI50 with A549 is 54.3 µM (inactive); in the experiment on BT-549, > 100 µM (inactive); in the experiment on HT-29, 48.5 µM (inactive); in the experiment on IGROV-1, 25 µM (inactive); in the experiment with M14, 41.8 µM (inactive); in the experiment with NCI-H460, 79.8 µM (inactive). For the same molecule, the GI50 in the experiment on NCI-H522 is 26.2 µM (inactive); with NCI/ADR-RES it was > 100 µM (inactive); in the experiment on OVCAR-4 it was 49 µM (inactive); in the experiment on RXF 393, > 100 µM (inactive); with SF-268, 93.8 µM (inactive); in the experiment on SK-MEL-28, 35.2 µM (inactive). The GI50 was 30 µM (inactive) in the experiment on SK-MEL-5; > 100 µM (inactive) in the experiment with SK-OV-3; 22.2 µM (inactive) with SNB-19; 14.5 µM (inactive) in the experiment on T47D; 33.1 µM (inactive) in the experiment on TK-10; 31 µM (inactive) in the experiment on UACC-62. For the same molecule, the GI50 in the experiment on UO-31 is > 100 µM (inactive).
